Measured values taken from ChEMBL document CHEMBL1141099, “Discovery of N-(2,6-dimethylphenyl)-substituted semicarbazones as anticonvulsants: hybrid pharmacophore-based design” (2005).

Assays:
Rattus norvegicus [1] = test: Number of rats protected at a dose of 30 mg/Kg when given oral at 1 hr upon maximal electroshock seizure; Total number of rats = 4; format: functional
Rattus norvegicus [2] = test: Number of rats protected at a dose of 30 mg/Kg when given oral at 2 hr upon maximal electroshock seizure; Total number of rats = 4; format: functional
Rattus norvegicus [3] = test: Number of rats protected at a dose of 30 mg/Kg when given oral at 4 hr upon maximal electroshock seizure; Total number of rats = 4; format: functional
Rattus norvegicus [4] = test: Number of rats protected at a dose of 30 mg/Kg when given oral at 0.5 hr upon maximal electroshock seizure; Total number of rats = 4; format: functional
Rattus norvegicus [5] = test: Number of rats protected at a dose of 30 mg/Kg when given oral at 0.25 hr upon maximal electroshock seizure; Total number of rats = 4; format: functional
Rattus norvegicus [6] = test: Enzymatic activity to assess the increase in level of SGOT at a dose of 30 mg/Kg for 14 days when given p.o., in 6 rats; Control 73.1; format: functional
Rattus norvegicus [7] = test: Enzymatic activity to assess the increase in level of SGPT at a dose of 30 mg/Kg for 14 days when given p.o., in 6 rats; Control 45.0; format: functional
Rattus norvegicus [8] = test: Toxic dose observed for anticonvulsant activity when given orally at 4 h in rat upon neurotoxicity seizure; format: functional; settings: po
Rattus norvegicus [9] = species: Rattus norvegicus; test: Protective index between effective dose and toxic dose in rat; format: functional
Mus musculus [10] = test: Minimum dose required for anticonvulsant activity when given i.p., at 4 hr in mice upon maximal electroshock seizure; format: functional
Mus musculus [11] = test: Minimum dose required for anticonvulsant activity when given i.p., at 0.5 hr in mice upon maximal electroshock seizure; format: functional
Rattus norvegicus [12] = test: Effective dose required for anticonvulsant activity when given orally at 4 h in rat upon maximal electroshock seizure; format: functional; settings: po
Mus musculus [13] = test: Minimum dose required for anticonvulsant activity when given i.p., at 0.5 hr in mice upon subcutaneous pentylenetetrazole seizure; format: functional
Mus musculus [14] = test: Minimum dose required for anticonvulsant activity when given i.p., at 2 hr in mice upon subcutaneous strychnine seizure; format: functional
Mus musculus [15] = test: Minimum dose required for anticonvulsant activity when given i.p., at 0.5 hr in mice upon subcutaneous strychnine seizure; format: functional
Mus musculus [16] = test: Mean sleeping time evaluated for CNS study using the pentobarbital-induced narcosis model at a dose of 100 mg/Kg when given i.p., in mice (No. of animals 6)
Mus musculus [17] = test: Post treatment activity score for CNS study using a actophotometer at a dose of 100 mg/Kg after 1 hr when given i.p., in mice (No. of animals 6); Control (24h before) 224
Mus musculus [18] = test: Post treatment activity score for CNS study using a actophotometer at a dose of 100 mg/Kg after 0.5 hr when given i.p., in mice (No. of animals 6); Control (24h before) 224
Mus musculus [19] = test: Post treatment immobility time for CNS study using Porsolt's swimpool test at a dose of 100 mg/Kg after 1 hr when given i.p., in mice (No. of animals 6); Control (24h before) 176
[20] = target: 4-aminobutyrate aminotransferase, mitochondrial (Rattus norvegicus) (UniProt P50554); test: In vitro percentage inhibition activity against GABA-T enzyme at a concentration of 2.5 uM after 6 h
[21] = target: 4-aminobutyrate aminotransferase, mitochondrial (Rattus norvegicus) (UniProt P50554); test: In vitro percentage inhibition activity against GABA-T enzyme at a concentration of 2.5 uM after 4.5 h
Rattus norvegicus [22] = test: Effect on GABA level in rat whole brain concentration after 2 hr post-treatment at a dose of 100 mg/Kg when given i.p.; Control 48.4; format: functional
[23] = target: 4-aminobutyrate aminotransferase, mitochondrial (Rattus norvegicus) (UniProt P50554); test: In vitro percentage inhibition activity against GABA-T enzyme at a concentration of 2.5 uM after 3 h
Rattus norvegicus [24] = test: Effect on GABA level in rat whole brain concentration after 7 days post-treatment at a dose of 30 mg/Kg when given orally; Control 50.5; format: functional
Rattus norvegicus [25] = test: Toxic dose observed for anticonvulsant activity when given i.p., at 0.25 hr in rat upon neurotoxicity seizure; format: functional; settings: ip
Rattus norvegicus [26] = species: Rattus norvegicus; test: Ex vitro percentage inhibition activity against GABA-T enzyme at a concentration of 1.25 uM after 4.5 h; format: functional
Rattus norvegicus [27] = test: Effective dose required for anticonvulsant activity when given i.p., at 0.25 hr in rat upon maximal electroshock seizure; format: functional; settings: ip
Rattus norvegicus [28] = species: Rattus norvegicus; test: Ex vitro percentage inhibition activity against GABA-T enzyme at a concentration of 1.25 uM after 3 h; format: functional
Rattus norvegicus [29] = species: Rattus norvegicus; test: Ex vitro percentage inhibition activity against GABA-T enzyme at a concentration of 1.25 uM after 6 h; format: functional
Mus musculus [30] = test: Post treatment activity score for CNS study using a actophotometer at a dose of 100 mg/Kg after 1 hr when given i.p., in mice (No. of animals 6); Control (24h before) 260
Mus musculus [31] = test: Post treatment activity score for CNS study using a actophotometer at a dose of 100 mg/Kg after 0.5 hr when given i.p., in mice (No. of animals 6); Control (24h before) 260
Mus musculus [32] = test: Post treatment immobility time for CNS study using Porsolt's swimpool test at a dose of 100 mg/Kg after 1 h when given i.p., in mice (No. of animals 6); Control (24h before) 164

Chain of 4-aminobutyrate aminotransferase, mitochondrial (Rattus norvegicus) (P50554 28-500 limits assumed): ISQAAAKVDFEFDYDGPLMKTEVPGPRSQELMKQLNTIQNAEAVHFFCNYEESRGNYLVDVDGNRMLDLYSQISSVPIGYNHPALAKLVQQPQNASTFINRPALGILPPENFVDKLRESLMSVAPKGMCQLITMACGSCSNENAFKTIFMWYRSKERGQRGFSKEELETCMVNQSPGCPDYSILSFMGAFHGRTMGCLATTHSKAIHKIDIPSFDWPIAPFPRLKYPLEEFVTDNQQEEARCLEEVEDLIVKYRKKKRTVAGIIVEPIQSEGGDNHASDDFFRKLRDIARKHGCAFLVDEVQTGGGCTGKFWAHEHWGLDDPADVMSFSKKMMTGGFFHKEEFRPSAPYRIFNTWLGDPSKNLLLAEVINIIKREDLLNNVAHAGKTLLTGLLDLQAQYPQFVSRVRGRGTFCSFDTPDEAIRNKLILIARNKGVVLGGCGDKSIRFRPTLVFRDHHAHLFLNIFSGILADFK

Structure (SMILES)	Activity (Rattus norvegicus [1])	Activity (Rattus norvegicus [2])	Activity (Rattus norvegicus [3])	Activity (Rattus norvegicus [4])	Activity (Rattus norvegicus [5])	PI (Rattus norvegicus [9])	MES (Mus musculus [10])	MES (Mus musculus [11])	PTZ seizure (Mus musculus [13])	STY seizure (Mus musculus [14])	STY seizure (Mus musculus [15])	Time (Mus musculus [16])	further results
CC/C(C)=N\NC(=O)Nc1c(C)cccc1C	4	3	3	4	1	>17.2	300 mg/kg	100 mg/kg	300 mg/kg	100 mg/kg	30 mg/kg	61 min	SGOT activity (Rattus norvegicus [6]): 79.6 units/mL; SGPT activity (Rattus norvegicus [7]): 49.3 units/mL; TD50 (Rattus norvegicus [8]): > 500 mg/kg; ED50 (Rattus norvegicus [12]): 29 mg/kg; Activity (Mus musculus [17]): 195; Activity (Mus musculus [18]): 188; Activity (Mus musculus [19]): 199
C/C(=N\NC(=O)Nc1c(C)cccc1C)c1ccc(O)cc1	4	3	4	2	1	>1.6	300 mg/kg	100 mg/kg	300 mg/kg	100 mg/kg	30 mg/kg	108 min	inhibition [20]: 55%; inhibition [21]: 0%; Activity (Rattus norvegicus [22]): 81.1 ug/100mg of tissue; inhibition [23]: 0%; Activity (Rattus norvegicus [24]): 93.6 ug/100mg of tissue; TD50 (Rattus norvegicus [25]): > 68 mg/kg; Inhibition (Rattus norvegicus [26]): 25%; ED50 (Rattus norvegicus [27]): 41.6 mg/kg; Inhibition (Rattus norvegicus [28]): 0%; Inhibition (Rattus norvegicus [29]): 60%; Activity (Mus musculus [30]): 198; Activity (Mus musculus [31]): 205; Activity (Mus musculus [32]): 198
